Source: PubChem BioAssay (NCI)
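48-hour exposure; five concentrations; linearly interpolated endpoints. At the TGI there is no net growth.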

Columns and labels:
Experiment in all cases: NCI-60 cell line screen, 48 h
[1] = test system: 786-0 renal
[2] = test system: A498 renal
[3] = test system: A549 NSCLC
[4] = test system: ACHN renal
[5] = test system: BT-549 breast
[6] = test system: CAKI-1 renal
[7] = test system: CCRF-CEM leukemia
[8] = test system: COLO 205 colon
[9] = test system: DU-145 prostate
[10] = test system: EKVX NSCLC
[11] = test system: HCC-2998 colon
[12] = test system: HCT-116 colon
[13] = test system: HCT-15 colon
[14] = test system: HL-60(TB) leukemia
[15] = test system: HOP-62 NSCLC
[16] = test system: HOP-92 NSCLC
[17] = test system: HS 578T breast
[18] = test system: HT29 colon
[19] = test system: IGROV1 ovarian
[20] = test system: K-562 leukemia
[21] = test system: KM12 colon
[22] = test system: LOX IMVI melanoma
[23] = test system: M14 melanoma
[24] = test system: MALME-3M melanoma
[25] = test system: MCF7 breast
[26] = test system: MDA-MB-435
[27] = test system: MDA-N
[28] = test system: MOLT-4 leukemia
[29] = test system: NCI-H226 lung
[30] = test system: NCI-H23 lung
[31] = test system: NCI-H460 lung
[32] = test system: NCI-H522 lung
[33] = test system: NCI/ADR-RES ovarian
[34] = test system: OVCAR-3 ovarian
[35] = test system: OVCAR-4 ovarian
[36] = test system: OVCAR-5 ovarian
[37] = test system: OVCAR-8 ovarian
[38] = test system: PC-3 prostate
[39] = test system: RPMI-8226 leukemia
[40] = test system: RXF 393 renal
[41] = test system: SF-268 CNS
[42] = test system: SF-295 CNS
[43] = test system: SF-539 CNS
[44] = test system: SK-MEL-2 melanoma
[45] = test system: SK-MEL-28 melanoma
[46] = test system: SK-MEL-5 melanoma
[47] = test system: SK-OV-3 ovarian
[48] = test system: SN12C renal
[49] = test system: SNB-19 CNS
[50] = test system: SNB-75 CNS
[51] = test system: SR leukemia
[52] = test system: SW-620 colon
[53] = test system: T-47D breast
[54] = test system: TK-10 renal
[55] = test system: U251 CNS
[56] = test system: UACC-257 melanoma
[57] = test system: UACC-62 melanoma
[58] = test system: UO-31 renal
[59] = test system: MDA-MB-231 breast

CCOC(=O)/C(=C\NCc1ccc2c(c1)OCO2)c1nc2ccccc2[nH]1 gave a TGI [1] of over 100 µM, a TGI [2] of over 100 µM and a TGI [3] of over 100 µM. The TGI [4] was over 100 µM, the TGI [5] was over 100 µM and the TGI [6] was over 100 µM. It also gave a TGI [7] of over 100 µM, a TGI [8] of over 100 µM and a TGI [9] of over 100 µM. It also gave a TGI [10] of over 100 µM, a TGI [11] of over 100 µM and a TGI [12] of over 100 µM. It also gave a TGI [13] of over 100 µM, a TGI [14] of over 100 µM and a TGI [15] of over 100 µM. It also gave a TGI [16] of over 100 µM, a TGI [17] of over 100 µM and a TGI [18] of over 100 µM. It also gave a TGI [19] of over 100 µM, a TGI [20] of over 100 µM and a TGI [21] of over 100 µM. For the same compound, the TGI [22] was over 100 µM, the TGI [23] was over 100 µM and the TGI [24] was over 100 µM. The TGI [25] was over 100 µM, the TGI [26] was over 100 µM and the TGI [27] was over 100 µM. The TGI [28] was over 100 µM, the TGI [29] was over 100 µM and the TGI [30] was over 100 µM. It also gave a TGI [31] of over 100 µM, a TGI [32] of over 100 µM and a TGI [33] of over 100 µM. It also gave a TGI [34] of over 100 µM, a TGI [35] of over 100 µM and a TGI [36] of over 100 µM. It also gave a TGI [37] of over 100 µM, a TGI [38] of over 100 µM and a TGI [39] of over 100 µM. For the same compound, the TGI [40] was over 100 µM, the TGI [41] was over 100 µM and the TGI [42] was over 100 µM. The TGI [43] was over 100 µM, the TGI [44] was over 100 µM and the TGI [45] was over 100 µM. The TGI [46] was over 100 µM, the TGI [47] was over 100 µM and the TGI [48] was over 100 µM. The TGI [49] was over 100 µM, the TGI [50] was over 100 µM and the TGI [51] was over 100 µM. It also gave a TGI [52] of over 100 µM, a TGI [53] of over 100 µM and a TGI [54] of 60 µM. The TGI [55] was over 100 µM, the TGI [56] was over 100 µM and the TGI [57] was over 100 µM. For the same compound, the TGI [58] was over 100 µM.

In the case of CC(C)(C)c1cc(OCc2nnc3sc(-c4ccc(Cl)cc4)nn23)c(Cl)cc1OCc1nnc2sc(-c3ccc(Cl)cc3)nn12, the TGI [1] is reported as 16.5 µM, the TGI [2] is reported as 26.1 µM and the TGI [3] is reported as 20.4 µM. The TGI [4] was 24.4 µM, the TGI [5] was 34.6 µM and the TGI [6] was 11.4 µM. It also gave a TGI [8] of 29.3 µM, a TGI [9] of 31.3 µM and a TGI [10] of 97.9 µM. The TGI [11] was 9.72 µM, the TGI [12] was 26 µM and the TGI [13] was 38.8 µM. It also gave a TGI [14] of 7.36 µM, a TGI [15] of 51.4 µM and a TGI [16] of 16.3 µM. It also gave a TGI [17] of over 100 µM, a TGI [18] of 83.6 µM and a TGI [19] of 21.4 µM. The TGI [20] was 12.5 µM, the TGI [21] was 11.1 µM and the TGI [22] was 54.2 µM. The TGI [23] was 88.6 µM, the TGI [24] was 21.8 µM and the TGI [25] was 10.9 µM. For the same compound, the TGI [59] was 38.3 µM, the TGI [27] was 3.46 µM and the TGI [28] was 31.2 µM. The TGI [29] was 54.3 µM, the TGI [30] was 20.6 µM and the TGI [31] was 12.9 µM. The TGI [32] was 29.9 µM, the TGI [33] was 35.6 µM and the TGI [34] was 8.73 µM. For the same compound, the TGI [35] was 57.8 µM, the TGI [36] was 88.9 µM and the TGI [37] was 19.8 µM. The TGI [38] was over 100 µM, the TGI [39] was 23.6 µM and the TGI [40] was 19.3 µM. The TGI [41] was over 100 µM, the TGI [42] was 18.2 µM and the TGI [43] was 15.2 µM. For the same compound, the TGI [44] was 44.9 µM, the TGI [45] was 33.3 µM and the TGI [46] was 3.47 µM. It also gave a TGI [47] of 27 µM, a TGI [48] of over 100 µM and a TGI [49] of 87.6 µM. For the same compound, the TGI [50] was 9.8 µM, the TGI [51] was 2.91 µM and the TGI [52] was 32.9 µM. It also gave a TGI [53] of 14.9 µM, a TGI [54] of 36.8 µM and a TGI [55] of 28.7 µM. The TGI [56] was 40.7 µM, the TGI [57] was 39.1 µM and the TGI [58] was 26.1 µM.
